Holding throughout (format): cell-based, human
The subject of test [1] is hGBM-1, hGBM-5 and hGBM-14 glioblastoma cultures. The test is described as follows: MTT assay of cell viability and proliferation in primary glioblastoma cultures. The procedure:
Proliferation of cultured glioma cells was assessed by 3-(4,5-dimethylthiazol-2-yl)-2,5-diphenyltetrazolium bromide (MTT, Sigma) assay. MTT tetrazolium salt was dissolved in serum-free culture medium (0.5 mg/ml), added to the cells (150 μl/well) and incubated for 30 min at 37° C. Formazan dye, formed by viable cells, was solubilized in 300 μl of isopropanol. Aliquots (100 μl) of the solutions were transferred to 96-well microplates. The absorbance at 570 nm (with reference at 650 nm) was measured using a microtiter plate spectrophotometer (Anthos HT III). The results were expressed as percentage of viablecells compared to the control sample of untreated cells (100%).
On the technique in general: Tetrazolium dyes change colour on reduction, which living cells bring about.

Test [2] concerns Cx43 in hGBM-1, hGBM-5 and hGBM-14 cells. The test can be described thus: Connexin 43 expression by immunocytochemistry and Western blot in primary glioblastoma cultures. As to the method: Tumour cells cultured on laminin/poly-ornithine coated glass chamber slides were washed in phosphate buffered saline (PBS) and fixed in 4% paraformaldehyde in phosphate buffer for 10 minutes. Cells were washed in PBS three times and incubated with primary antibodies diluted in buffer (0.3% TX-100 (Sigma), albumin fraction V (Sigma), phosphate buffer pH 7.0) over night at 4° C. Secondary antibodies conjugated with FITC or Cy3 (Jackson lmmunoresearch Laboratories) were applied for one hour at room temperature, followed by rinsing with PBS. Antibodies bound were visualized with epifluorescence microscopy using a Leica DMRB microscope, and photographs were taken using a Nikon F50 camera. The following antibodies were used at specified dilutions: monoclonal anti GFAP, 1:500 (DAKO), monodonal anti Cx43 (1:1000, Transduction Laboratories), and FITC (1:80)-conjugated secondary antibodies (Jackson lmmunoresearch Laboratories). Primary glioblastoma cells were grown to 75% confluency and cultured for 48 hours in the presence or absence of 4-PB (2, 5 and 10 mM) and processed as previously described (Asklund et al, Exp cell Res, 2003, 284:183-193). […] For quantification, films were scanned and analysed with Image Gauge (version 3.12, Fuji Photo Film Corp.). […] All results are expressed as means ± SE for the indicated number of experiments (FIG. 6).
On the technique in general: Immunoblotting shows a protein as a band on a membrane.

The test system of test [3] is gap junction communication in primary glioblastoma cells (hGBM-1). The test can be described thus: Fluorescent dye (calcein/Dil) transfer between primary glioblastoma cells. To be noted: recipient cells 5 mM 4-PB for 48 hours prior to dye transfer. As to the method: Primary glioblastoma cells were cultured on 35 mm petri dishes and in vitro labelled with 5 μM calcein-AM (acetomethylic ester) and 10 μM Dil (Molecular Probes) diluted in supplemented serum free medium DMEM/F12 and incubated for 30 min at 37° C. The cells were washed once with the same medium, trypsinized and suspended in the culture medium induding 10% FBS. The cells were pelleted by centrifugation at 1600 rpm for 1 minute and resuspended in fresh culture medium. The procedure was repeated twice. Following the second resuspension, the labelled cells were plated on top of unlabelled cells of the same origin. These cells were either pretreated with 4-PB at a concentration of 5 mM, or non-treated for serving as a control. The labeled cells were then allowed to settle for 1 hour, followed by analyses using epifluorescence detection microscopy every 30 minutes for up to 6 hours. GJC (gap-junction communication) were studied using an Olympus BX50WI microscope equipped with UV epifluorescence and red and green attenuating filters.

For test [4], the system named is U87MG cells. The test is described as follows: XTT cytotoxicity assay of phenylbutyrate and of nucleoside analogues with or without phenylbutyrate pre-incubation. To be noted: 4-phenylbutyrate cytotoxicity assay, incubation 24 hours; read-out: IC50 U87MG (phenylbutyrate alone). As to the method:
Briefly, cells were harvested by trypsinzation, stained by Tryphan Blue for cell viability counting, seeded in triplicate in 96-well plates (1.000-2.000 cells/well) where after media conditioned with a fixed concentration of phenyl butyrate (3.16 mM) were added to the plates followed by incubation for 24 hours at 37° C. and 5% CO2. Cell proliferation/cytotoxicity was assessed by adding the colour generating substrates of the Cell Proliferation kit II (XTT) from Roche (Cat. No. 1465015) and measuring absorbance at 450 nm and 690 nm with a Thermo Labsystems Multiscan Ascent reader.
(§1) Cells were seeded at a density of 1.000-2.000 cells/well in 96-well plates. Cells were pre-incubated with 4-phenyl butyrate for 24 hours prior to drug exposure by adding media conditioned with phenyl butyrate at a fixed concentration (3.16 mM). Plated incubated for 24 hours (37° C., 5% CO2) where after media was discarded and replaced by media conditioned with various concentrations of nucleoside analogs (e.g. AZT), 200 μl/well. After 120 hours of drug exposure the experiments were terminated. Cell proliferation/cytotoxicity was assessed by adding the colour generating substrates of the Cell Proliferation kit II (XTT) from Roche (Cat. No. 1465015) and measuring absorbance at 450 nm and 690 nm with a Thermo Labsystems Multiscan Ascent reader.
The data was corrected for background media-only absorbance where after the 50% growth inhibitory concentration—IC50 (the dose that inhibits cell growth by 50%) was calculated for each treatment.
Briefly, cells were harvested by trypsinzation, stained by Tryphan Blue (Cambrex) for cell viability counting, seeded in triplicate in poly-L-lysine (PLL) (Sigma # P6282) coated 96-well plates (1.000-2.000 cells/well) where after media conditioned with a fixed concentration of phenyl butyrate (3.16 mM) was added to the plates followed by incubation for 24 hours at 37° C. and 5% CO2. Cell proliferation/cytotoxicity was assessed by adding the colour generating substrates of the
as §1, with “cells/well in PLL coated 96-well plates.” for “cells/well in 96-well plates.”, “of nucleoside analogs; AZT (Sigma # A2169), AraC (Sigma # C6645), Cladribine (CdA) (Sigma #C4438), Gancidovir (GCV) (Sigma # G2536) and Gemcitabine (Orifarm), 200 μl/well.” for “of nucleoside analogs (e.g. AZT), 200 μl/well.”, “Ascent reader. he data was corrected for background media-only absorbance where after the 50% growth inhibitory concentration—IC50 (the dose that inhibits cell growth by 50%) was calculated for ach treatment.” for “Ascent reader.”

“Also recorded” adds a separate entry of the source.

As to 4-phenylbutyrate [4-PB], in test [1] (after 24 hours of treatment), the “anti-proliferative effect by phase contrast microscopy” value is listed as “Anti-proliferative effects were seen”. In test [1] (hGBM-1 culture), the “4-PB concentration at which the culture shows significant sensitivity (MTT)” value was determined as 5 mM. Further, the “4-PB concentration at which the culture is significantly affected (MTT)” value in test [1] (hGBM-5 culture) and in test [1] (hGBM-14 culture) was 10 mM in each case. Moreover, the “Cx43 immunoreactivity at the cell surface (immunocytochemistry)” value in test [2] (5 mM 4-PB for 48 hours) is reported as “marked increase”. The “non-phosphorylated and phosphorylated isoforms of Cx43 (Western blot)” value in test [2] (4-PB 2-10 mM, 48 hours) is on record as “increased quantitatively; also recorded: marked increase”. In test [3], the “intercellular spread of calcein (gap junction dye transfer)” value is on record as “markedly improved; also recorded: facilitated gap junction dependent calcein transfer substantially”. Besides, the IC50 (in general, the point on the concentration scale where inhibition reaches its midpoint) in test [4] worked out at 4.14 mM.

The values above are taken from US20070264241A1, “Compounds for Enhanced Cancer Therapy” (priority 2004, published 2007).
